IC50 data for 18 compounds are collected here from patent publication US20240376123A1, “KRAS G12D INHIBITORS AND USES THEREOF” (SUZHOU ZANRONG PHARMA LIMITED, priority 2021, published 2024).

Structures are written as SMILES.

This assay relates to p-ERK in PNAC-1/HPAC cell. As to the kind of experiment: Phospho-ERK 1/2 assay (Table 1). The class given is cell-based. The following applies: Homo sapiens; PNAC-1/HPAC cell, 3 hours compound incubation; read-out: p-ERK IC50. The protocol:
Allow PNAC-1/HPAC cell growth in a T75 flask in DMEM and 10% 1 fetal calf serum (FCS; Gibco), using standard tissue culture procedures until ˜80% confluency is achieved. Day 1, seed 6000 cells/well in 384 well plate and incubate at 37° C., 5% CO2. Add diluted compound by Echo 550, final DMSO is 0.5%, incubate cells at 37° C., 5% CO2 for 3 hours. Then, remove medium and fix cells with 3.7% formaldehyde in PBS (PFA) by Apricot. Wash with PBS once. Permeabilize cells with cold 100% methanol and repeat wash once with PBS once. Add Li-Cor blocking buffer to each well and incubate 1.5 hours at RT. Remove blocking buffer and add primary antibody mixture (rabbit anti pERK, mouse anti GAPDH). Incubate at 4° C. overnight. Day 2, wash with PBST (Tween-20 in PBS) with total 3 times and then add secondary antibody mixture (goat anti rabbit 800CW (1:800 dilution in the combined solution) and goat anti mouse 680RD (1:800 dilution in the combined solution)), incubate for 60 minutes at RT away from light. Repeat washing with PBST 3 times. After final wash, centrifuge plate up-side-down at 1000 rpm to remove wash solution completely from wells. Before plate scanning, clean the bottom plate surface and the Odyssey* Imager scanning bed (if applicable) with moist, lint-free tissue to avoid any obstructions during scanning. Scan plate with detection in both 700 and 800 nm channels.
Regarding `C#Cc1c(F)ccc2cccc(-c3nc4c5c(nc(OC[C@@]67CCCN6C[C@H](F)C7)nc5c3F)N3CC5CCC(N5)C3CO4)c12` (stereo partly drawn) [Compound 8, (6R,9S)-2-(8-ethynyl-7-fluoronaphthalen-1-yl)-1-fluoro-12-(((2R,7aS)-2-fluorotetrahydro-1H-pyrrolizin-7a(5H)-yl)methoxy)-5a,6,7,8,9,10-hexahydro-5H-4-oxa-3,10a,11,13,14-pentaaza-6,9-methanonaphtho[1,8-ab]heptalene], the IC50 worked out at 9 nM. In the case of `Fc1ccc2cccc(-c3nc4c5c(nc(OC[C@@]67CCCN6C[C@H](F)C7)nc5c3F)N3C[C@@H]5CC[C@@H](N5)C3CO4)c2c1Cl` (stereo partly drawn) [Compound 11, (6R,9S)-2-(8-chloro-7-fluoronaphthalen-1-yl)-1-fluoro-12-(((2R,7aS)-2-fluorotetrahydro-1H-pyrrolizin-7a(5H)-yl)methoxy)-5a,6,7,8,9,10-hexahydro-5H-4-oxa-3,10a,11,13,14-pentaaza-6,9-methanonaphtho[1,8-ab]heptalene] it was 53 nM; in that of `Fc1c(-c2cccc3cccc(Cl)c23)nc2c3c(nc(OC[C@@]45CCCN4C[C@H](F)C5)nc13)N1C[C@@H]3CC[C@@H](N3)C1CO2` (stereo partly drawn) [Compound 12, (6R,9S)-2-(8-chloronaphthalen-1-yl)-1-fluoro-12-(((2R,7aS)-2-fluorotetrahydro-1H-pyrrolizin-7a(5H)-yl)methoxy)-5a,6,7,8,9,10-hexahydro-5H-4-oxa-3,10a,11,13,14-pentaaza-6,9-methanonaphtho[1,8-ab]heptalene], 68 nM. In the case of `Cc1c(F)ccc2cccc(-c3nc4c5c(nc(OC[C@@]67CCCN6C[C@H](F)C7)nc5c3F)N3C[C@@H]5CC[C@@H](N5)C3CO4)c12` (stereo partly drawn) [Compound 13, (6R,9S)-1-fluoro-2-(7-fluoro-8-methylnaphthalen-1-yl)-12-(((2R,7aS)-2-fluorotetrahydro-1H-pyrrolizin-7a(5H)-yl)methoxy)-5a,6,7,8,9,10-hexahydro-5H-4-oxa-3,10a,11,13,14-pentaaza-6,9-methanonaphtho[1,8-ab]heptalene] it was 237 nM. For `Fc1ccc2cccc(-c3nc4c5c(nc(OC[C@@]67CCCN6C[C@H](F)C7)nc5c3F)N3C[C@@H]5CC[C@@H](N5)C3CO4)c2c1F` (stereo partly drawn) [Compound 14, (6R,9S)-2-(7,8-difluoronaphthalen-1-yl)-1-fluoro-12-(((2R,7aS)-2-fluorotetrahydro-1H-pyrrolizin-7a(5H)-yl)methoxy)-5a,6,7,8,9,10-hexahydro-5H-4-oxa-3,10a,11,13,14-pentaaza-6,9-methanonaphtho[1,8-ab]heptalene], the IC50 was 141 nM.

On to `Fc1c(-c2cccc3cccc(F)c23)nc2c3c(nc(OC[C@@]45CCCN4C[C@H](F)C5)nc13)N1C[C@@H]3CC[C@@H](N3)C1CO2` (stereo partly drawn) [Compound 15, (6R,9S)-1-fluoro-2-(8-fluoronaphthalen-1-yl)-12-(((2R,7aS)-2-fluorotetrahydro-1H-pyrrolizin-7a(5H)-yl)methoxy)-5a,6,7,8,9,10-hexahydro-5H-4-oxa-3,10a,11,13,14-pentaaza-6,9-methanonaphtho[1,8-ab]heptalene], for which the IC50 was determined as 221 nM.

Take `Fc1ccc2cccc(-c3nc4c5c(nc(OC[C@@]67CCCN6C[C@H](F)C7)nc5c3F)N3C[C@@H]5CC[C@@H](N5)C3CO4)c2c1` (stereo partly drawn) [Compound 16, (6R,9S)-1-fluoro-2-(7-fluoronaphthalen-1-yl)-12-(((2R,7aS)-2-fluorotetrahydro-1H-pyrrolizin-7a(5H)-yl)methoxy)-5a,6,7,8,9,10-hexahydro-5H-4-oxa-3,10a,11,13,14-pentaaza-6,9-methanonaphtho[1,8-ab]heptalene]: the concentration for half-maximal inhibition (IC50) was 355 nM. For `COc1ccc2cccc(-c3nc4c5c(nc(OC[C@@]67CCCN6C[C@H](F)C7)nc5c3F)N3C[C@@H]5CC[C@@H](N5)C3CO4)c2c1` (stereo partly drawn) [Compound 17, (6R,9S)-1-fluoro-12-(((2R,7As)-2-fluorotetrahydro-1H-pyrrolizin-7a(5H)-yl)methoxy)-2-(7-methoxynaphthalen-1-yl)-5a,6,7,8,9,10-hexahydro-5H-4-oxa-3,10a,11,13,14-pentaaza-6,9-methanonaphtho[1,8-ab]heptalene], the IC50 stood at 1000 nM. On to `Fc1cc2cccc(F)c2c(-c2nc3c4c(nc(OC[C@@]56CCCN5C[C@H](F)C6)nc4c2F)N2C[C@@H]4CC[C@@H](N4)C2CO3)n1` (stereo partly drawn) [Compound 18, (6R,9S)-2-(3,8-difluoroisoquinolin-1-yl)-1-fluoro-12-(((2R,7aS)-2-fluorotetrahydro-1H-pyrrolizin-7a(5H)-yl)methoxy)-5a,6,7,8,9,10-hexahydro-5H-4-oxa-3,10a,11,13,14-pentaaza-6,9-methanonaphtho[1,8-ab]heptalene], for which the IC50 came to 404 nM. In the case of `C#Cc1cccc2cccc(-c3nc4c5c(nc(OC[C@@]67CCCN6C[C@H](F)C7)nc5c3F)N3C[C@@H]5CC[C@@H](N5)C3CO4)c12` (stereo partly drawn) [Compound 19, (6R,9S)-2-(8-ethynylnaphthalen-1-yl)-1-fluoro-12-(((2R,7aS)-2-fluorotetrahydro-1H-pyrrolizin-7a(5H)-yl)methoxy)-5a,6,7,8,9,10-hexahydro-5H-4-oxa-3,10a,11,13,14-pentaaza-6,9-methanonaphtho[1,8-ab]heptalene] it was 29 nM; in that of `N#Cc1cccc2cccc(-c3nc4c5c(nc(OC[C@@]67CCCN6C[C@H](F)C7)nc5c3F)N3C[C@@H]5CC[C@@H](N5)C3CO4)c12` (stereo partly drawn) [Compound 20, 8-((6R,9S)-1-fluoro-12-(((2R,7aS)-2-fluorotetrahydro-1H-pyrrolizin-7a(5H)-yl)methoxy)-5a,6,7,8,9,10-hexahydro-5H-4-oxa-3,10a,11,13,14-pentaaza-6,9-methanonaphtho[1,8-ab]heptalen-2-yl)-1-naphthonitrile], 735 nM; in that of `Fc1cccc(-c2nc3c4c(nc(OC[C@@]56CCCN5C[C@H](F)C6)nc4c2F)N2C[C@@H]4CC[C@@H](N4)C2CO3)c1C1CC1` (stereo partly drawn) [Compound 21, (6R,9S)-2-(2-cyclopropyl-3-fluorophenyl)-1-fluoro-12-(((2R,7aS)-2-fluorotetrahydro-1H-pyrrolizin-7a(5H)-yl)methoxy)-5a,6,7,8,9,10-hexahydro-5H-4-oxa-3,10a,11,13,14-pentaaza-6,9-methanonaphtho[1,8-ab]heptalene], 1230 nM. In the case of `N#Cc1c(N)sc2cccc(-c3nc4c5c(nc(OC[C@@]67CCCN6C[C@H](F)C7)nc5c3F)N3C[C@@H]5CC[C@@H](N5)C3CO4)c12` (stereo partly drawn) [Compound 22, 2-amino-4-((6R,9S)-1-fluoro-12-(((2R,7aS)-2-fluorotetrahydro-1H-pyrrolizin-7a(5H)-yl)methoxy)-5a,6,7,8,9,10-hexahydro-5H-4-oxa-3,10a,11,13,14-pentaaza-6,9-methanonaphtho[1,8-ab]heptalen-2-yl)benzo[b]thiophene-3-carbonitrile] it was 493 nM. In the case of `Fc1c(-c2cccc(Cl)c2C2CC2)nc2c3c(nc(OC[C@@]45CCCN4C[C@H](F)C5)nc13)N1C[C@@H]3CC[C@@H](N3)C1CO2` (stereo partly drawn) [Compound 23, (6R,9S)-2-(3-chloro-2-cyclopropylphenyl)-1-fluoro-12-(((2R,7aS)-2-fluorotetrahydro-1H-pyrrolizin-7a(5H)-yl)methoxy)-5a,6,7,8,9,10-hexahydro-5H-4-oxa-3,10a,11,13,14-pentaaza-6,9-methanonaphtho[1,8-ab]heptalene] it was 375 nM; in that of `CC(=O)c1cccc2cc(O)cc(-c3nc4c5c(nc(OC[C@@]67CCCN6C[C@H](F)C7)nc5c3F)N3C[C@H]5CC[C@H](N5)[C@H]3CO4)c12` [Compound 26, 1-(8-((5aS,6S,9R)-1-fluoro-12-(((2R,7aS)-2-fluorotetrahydro-1H-pyrrolizin-7a(5H)-yl)methoxy)-5a,6,7,8,9,10-hexahydro-5H-4-oxa-3,10a,11,13,14-pentaaza-6,9-methanonaphtho[1,8-ab]heptalen-2-yl)-6-hydroxynaphthalen-1-yl) ethan-1-one], 148 nM. For `Oc1cc(-c2nc3c4c(nc(OC[C@@]56CCCN5C[C@H](F)C6)nc4c2F)N2C[C@H]4CC[C@H](N4)[C@H]2CO3)c2c(Cl)cccc2c1` [Compound 27, 5-chloro-4-((5aS,6S,9R)-1-fluoro-12-(((2R,7aS)-2-fluorotetrahydro-1H-pyrrolizin-7a(5H)-yl)methoxy)-5a,6,7,8,9,10-hexahydro-5H-4-oxa-3,10a,11,13,14-pentaaza-6,9-methanonaphtho[1,8-ab]heptalen-2-yl)naphthalen-2-ol], the IC50 was 5 nM.

As to `Oc1cc(-c2nc3c4c(nc(OC[C@@]56CCCN5C[C@H](F)C6)nc4c2F)N2C[C@H]4CC[C@H](N4)[C@H]2CO3)c2cc(F)ccc2c1` [Compound 30, 6-fluoro-4-((5aS,6S,9R)-1-fluoro-12-(((2R,7aS)-2-fluorotetrahydro-1H-pyrrolizin-7a(5H)-yl)methoxy)-5a,6,7,8,9,10-hexahydro-5H-4-oxa-3,10a,11,13,14-pentaaza-6,9-methanonaphtho[1,8-ab]heptalen-2-yl)naphthalen-2-ol], the IC50 is 17 nM. In the case of `C#Cc1cccc2cc(O)cc(-c3nc4c5c(nc(OC[C@@]67CCCN6C[C@H](F)C7)nc5c3F)N3C[C@H]5CC[C@H](N5)[C@H]3CO4)c12` [Compound 31, 5-ethynyl-4-((5aS,6S,9R)-1-fluoro-12-(((2R,7aS)-2-fluorotetrahydro-1H-pyrrolizin-7a(5H)-yl)methoxy)-5a,6,7,8,9,10-hexahydro-5H-4-oxa-3,10a,11,13,14-pentaaza-6,9-methanonaphtho[1,8-ab]heptalen-2-yl)naphthalen-2-ol] it was 8 nM.

As a reminder, the IC50 is the point on the concentration scale where inhibition reaches its midpoint.
